According to patent US11833154B2, “Methods of treatment of myeloproliferative neoplasm” (priority 2017, dated 2023):

Columns and labels:
[1] = system: JAK2/IDH2-mutant MPN; assay: Bone marrow stem and progenitor populations by FACS in treated recipients; format: in vivo, mice; settings: for Erythrocyte progenitors: Pre-erythrocytes / Pre-MegE populations / Erythrocyte progenitors: CFU-E / Erythrocyte progenitors: Pre-CFU-E: bone marrow FACS; for Erythrocyte progenitors: Pre-erythrocytes / Pre-MegE populations / Erythrocyte progenitors: CFU-E / Erythrocyte progenitors: Pre-CFU-E / Total LSK number in the bone marrow: four weeks of treatment; for Erythrocyte progenitors: Pre-erythrocytes / Pre-MegE populations: vehicle 0.1757; for Erythrocyte progenitors: CFU-E: vehicle 1.621; for Erythrocyte progenitors: Pre-CFU-E: vehicle mean 0.5189%; for Total LSK number in the bone marrow: double mutant mice, vehicle mean 57.19×10^3
Experimental: (§1) Dissected femurs and tibias were isolated. Bone marrow was flushed into PBS+2% BSA or RPMI+10% FCS using a syringe or by centrifuge spin. Spleens were isolated and single cell suspensions made by mechanical disruption using glass slides. All harvested cells were passed through a […] strainer. Red blood cells (RBCs) were lysed in ammonium chloride-potassium bicarbonate lysis buffer for 10 min on ice. Cells were transplanted by via tail vein injection into lethally irradiated (2×550 Rad) CD45.1 host mice. For noncompetitive transplants, 1×10^6 total cells were transplanted; for competitive transplants including drug studies, 1×10^6 total donor cells were injected in a mixture with 1×10^6 cells from a congenic CD45.1 donor; for cell of origin transplants, injection number was determined based on the lowest yield after sort to inject approximately 100,000 MPP or 300 LT-HSC with 300,000 whole bone marrow cells from a CD45.1 donor.
(§2) Cells were stained with antibodies in FACS Buffer (2% Bovine Serum Albumin in phosphate-buffered saline (PBS)) for 30 min on ice. Donor and support chimerism was assessed using antibodies against CD45.1 (Clone A20, Biolegend) and CD45.2 (Clone 104, BioLegend).
Cells were also stained with antibodies specific to c-Kit/CD117 (clone 2B8, BioLegend), Sca-1 (clone D7, BioLegend), FcγRII/III/CD16/32 (clone 2.4G2, eBiosciences) and CD34 (clone RAM34, eBiosciences) or SLAM/CD150 (TC15-12F12.2, BioLegend) and CD48 (HM48-1, eBioscience). To assess mature cell lineages we used a combination of antibodies against Mac1, Gr-1, B220, CD3, cKit/CD117, CD45.1, and CD45.2.
To assess erythroid and megakaryocyte progenitors we stained unlysed tissues with a lineage cocktail including CD4, CD8, B220/CD45R, Mac1/CD11b, Gr-1, IL7R/CD127 (A7R34, BioLegend), CD49b (DX5, BioLegend). Antibodies were also used against c-Kit/CD117, Sca-1, SLAM/CD150, CD48, FcγRII/III/CD16/32, CD41 (eBioMWReg30, eBioscience), CD105 (MJ7/18, BioLegend), CD71 (RI7217, BioLegend), and Ter119 and gated as described by Pronk et al., Elucidation of the Phenotypic, Functional, and Molecular Topography of a Myeloerythroid Progenitor Cell Hierarchy, Cell Stem Cell 2007; 1:428-42.

[2] = system: JAK2/IDH2 mutant MPN; assay: Histology of bone marrow and spleen of treated recipients; format: in vivo, mice
Experimental: Pathology was obtained after fixation in 4% paraformaldehyde (PFA); blood smears and bone marrow cytospins were performed on the day of sacrifice. Sections were stained with hematoxylin and eosin stain or Wright Giemsa stain as appropriate. CD34+ staining was performed using CD34, Rat Monoclonal Antibody Performed on a Leica Bond™ RX using the Bond™ Polymer Refine Detection Kit (Cat. No. DS9800). The sections stained with CD34 (Abcam, Cat. Ab8158 diluted 1:50) were pre-treated using heat mediated antigen retrieval with Citrate, pH6 (Leica Biosystem Epitope Retrieval 1, Cat. No. AR9961) for 20 min. DAB was used as the chromogen, counterstained with hematoxylin and mounted.

[3] = system: IDH2^R140Q JAK2^V617F MPN cells (CD45.2^+); assay: Paired donor chimerism in peripheral blood before and after treatment; format: in vivo, mice; settings: four weeks of treatment, vehicle +4.236
Experimental: as §1, §2

[4] = system: JAK2/IDH2-mutant MPN cell metabolism; assay: LC/MS metabolite analysis of bone marrow aspirates from treated mice; format: in vivo, mouse
Experimental: External mass calibration was performed using the standard calibration mixture every 7 days. […] Buffer A was 20 mM ammonium carbonate, 0.1% ammonium hydroxide; buffer B was acetonitrile. […] The sheath gas flow was set to 40 units, the auxiliary gas flow was set to 15 units, and the sweep gas flow was set to 1 unit. […] Relative quantitation of polar metabolites was performed with XCalibur QuanBrowser 2.2 (Thermo Fisher Scientific) using a 5 ppm mass tolerance and referencing an in-house library of chemical standards.

[5] = system: IDH2^R140Q JAK2^V617F mutant LSK; assay: RNA-sequencing of donor-derived CD45.2 LSK from treated mice (GSEA); format: in vivo
Experimental: Before cell of origin transplants, sorting was performed on bone marrow with enrichment for cKit/CD117-positive cells using CD117 MicroBeads (Miltenyi). For expression analysis, sorting was performed on bone marrow that had been depleted of mature cells using Progenitor Cell Enrichment Kit ([…] Technologies).
CD45.2+ LSK cells were sorted into ice cold FACS Buffer, pelleted, and stored in Triazol until extraction of RNA using phenol-chlorophorm. The library was produced using SMARTer amplification (Clontech) amplify and create the library. Illumina sequencing was performed using Paired-End 50 bp at 40×10^6 reads per sample.

[6] = system: JAK2/IDH2-mutant MPN/AML cells; assay: FACS of cell surface markers on cultured human colony cells; format: cell-based; settings: cultured patient cells, 400 nM
Experimental: (§3) Frozen or fresh PBMCs were plated in Methocult H4435 (Stem Cell) with penicillin and streptomycin in triplicate wells. MPN patient cells were plated after enrichment using CD34 Microbeads (Miltenyi) at 1,000 cells per well; AML patient cells were plated without enrichment at 100,000 cells per well.
To observe monocytic and granulocytic differentiation, antibodies against CD117/cKit, CD34, CD38, CD15 (HI98, eBioscience), CD14 (HCD14, BioLegend), and CD16 (3G8, BioLegend) were used.

[7] = system: JAK2/IDH2-mutant MPN; assay: Therapeutic assay: spleen weight, hematocrit and leukocyte count at sacrifice; format: in vivo, mice; settings: IDH2^R140Q JAK2^V617F bone marrow recipients, four weeks of treatment; vehicle mean 289.1
Experimental: as §1

[8] = system: samples from patients with MPN and Post-MPN AML with IDH2^R140Q and JAK2^V617F mutations; assay: Human colony forming (methylcellulose) assay; format: cell-based; settings: Methocult H4435, 400 nM
Experimental: Approval was obtained from the Institutional Review Board at Memorial Sloan-Kettering Cancer Center. Tissues were collected in partnership with the Human Oncology Tissue Bank, and all patients provided informed consent. Fresh peripheral blood was collected into heparinized collection tubes, and separation of peripheral blood mononuclear cells (PBMC) was performed using hetastarch and a Ficoll gradient with subsequent red blood cell lysis.
as §3

[9] = system: IDH2^R140Q JAK2^V61F mutant cells; assay: Serum 2HG levels in treated transplant recipient mice (LC-MS); format: in vivo; settings: mice engrafted with IDH2^R140Q JAK2^V617F cells; oral AG221 40-100 mg/kg, ruxolitinib 60 mg per kg, BID; at sacrifice after four weeks; vehicle mean 1874
Experimental: as §1
2HG was extracted from serum using 80% aqueous methanol, as described by Lu et al., […]. […] All extracts were spun at 13,000 rpm at 4° C. to remove precipitate, dried at room temperature, and stored at −80° C.

[10] = CD45.2 LSK RNA-seq, GSEA, p<1e-4
[11] = stem cells of treated mice versus wild type, Hallmark GSEA

CC(C)(O)CNc1nc(Nc2ccnc(C(F)(F)F)c2)nc(-c2cccc(C(F)(F)F)n2)n1 [AG221, 2-methyl-1-[(4-[6-(trifluoromethyl)pyridin-2-yl]-6-{[2-(trifluoromethyl)pyridin-4-yl]amino}-1,3,5-triazin-2-yl)amino]propan-2-ol]
Erythrocyte progenitors: Pre-erythrocytes [1]: 0.03906
Pre-MegE populations [1]: 0.03906
Erythrocyte progenitors: CFU-E [1]: 0.8251
Erythrocyte progenitors: Pre-CFU-E [1]: 0.1913%
Proportion of CD45.2 myeloid progenitor populations ([1]; donor-derived cells, number of CD45.1 myeloid progenitors not affected): reduced
Total LSK number in the bone marrow [1]: 36.43×10^3
Aberrant CD34 expression in megakaryocytes ([2]; CD34 immunohistochemical stain of bone marrow): resulted the aberrant CD34 expression seen in megakaryocytes
Expansion of spleen blasts ([2]; histology, compared with untreated JAK2/IDH2 mutant MPN): eliminated the expansion of spleen blasts
Mutant donor chimerism, mean change pre- and post-treatment [3]: −6.291%
2HG levels in bone marrow aspirates ([4]; after 10 days of treatment): Reduction
Levels of Kreb's cycle intermediates (α-ketoglutarate, citrate, succinate, fumarate, malate) ([4]; bone marrow aspirates, 10 days of treatment, p<0.0252): reduced
NES, downregulated genes of the combination-therapy signature also altered by monotherapy [5, 10]: −2.3
NES, upregulated genes of the combination-therapy signature also reversed by monotherapy [5, 10]: +1.9
IL6/JAK/STAT3 gene expression signature [5, 11]: enrichment for expression of genes in this pathway were seen
Interferon gamma signatures [5, 11]: significantly enriched
Oncogenic signatures (cMYC, mTOR, KRAS) [5, 11]: highly significant enrichment
Differentiation markers CD235a / CD14 [6]: upregulation
Surface expression of immature marker cKit/CD117 / proportion of c-Kit positive colonies [6]: reduced
Splenomegaly: spleen weight (mean) [7]: 188.3 mg
BFU-E colonies [8]: presence of BFU-E colonies
Colony number / colony output ([8]; DMSO controls): increase in colony number
Serum 2HG levels (mean) [9]: 744.4 ng/mL

N#CC[C@H](C1CCCC1)n1cc(-c2ncnc3[nH]ccc23)cn1 [ruxolitinib, reference compound]
Erythrocyte progenitors: Pre-erythrocytes [1]: 0.08063
Pre-MegE populations [1]: 0.08063
Erythrocyte progenitors: CFU-E [1]: 0.5553
Erythrocyte progenitors: Pre-CFU-E [1]: 0.1103%
Total LSK number in the bone marrow [1]: 20.73×10^3
Mutant donor chimerism, mean change pre- and post-treatment [3]: +3.256%
NES, downregulated genes of the combination-therapy signature also altered by monotherapy [5, 10]: −2.2
Splenomegaly: spleen weight (mean) [7]: 101.3 mg
Serum 2HG levels (mean) [9]: 1233 ng/mL
